Assay results taken from patent publication US20090215845A1, “Fungicidal mixtures” (priority 2005, published 2009).
Read-outs that look alike come from different tables or passages of the source.

Tests used:
Trichurus spiralis = assay: MIC on nutrient agar media against soft-rot pathogen; assay type: cell-based
Method: (§1) The synergism was then determined using the method described by Kull et al. (F. C. Kull, P. C. Eismann, H. D. Sylvestrowicz, R. L. Mayer, Applied Microbiology 9, 538 to 541, 1961). Here, the following relationships apply:
(§2) Qa=concentration of substance A which corresponds to the MIC
(§3) Qb=concentration of substance B which corresponds to the MIC
(§4) QA=concentration of substance A in the concentration of A/B which suppresses microbial growth
(§5) QB=concentration of substance B in the concentration of A/B which suppresses microbial growth
(§6) SI=1 means the activities are additive
Various concentrations of prochloraz (A), tebuconazole (B) and mixtures of the two active compounds mentioned (AB) were tested against the soft-rot pathogen Trichurus spiralis on nutrient agar media. The minimum inhibitory concentration (MIC) refers to the value of the active compound or the active compound mixture in question where no growth could be observed.

blueing fungi = conditions: J. A. Drysdale et al., New Zealand Journal of Forestry Science 1982; cited from earlier work
Coriolus versicolor = assay: MIC, radial hyphal growth on malt extract peptone nutrient agar; assay type: cell-based; conditions: Trametes versicolor
Method: as §1, §2, §3, §4, §5, §6
Various concentrations of prochloraz (A), tebuconazole (B) and mixtures (AB) of the two active compounds mentioned were tested against the wood-destroying Basidiomycetes Coriolus versicolor. Mycelium pieces were punched out of a colony of the wood-destroying organism and incubated at 26° C. on a nutrient agar which contained malt extract peptone. The radial growth of the hypha with and without added active compound was then compared. The minimum inhibitory concentration (MIC) stated below is the lowest concentration of active compound at which the radial growth is suppressed completely.

[1] = test system: microorganisms in biologically active soil; assay: Soil burial of treated cotton sailcloth (DIN ENV 807), tear resistance; conditions: cloth drenched with 800 ppm single active compound in ethanol; 4 weeks in biologically active soil
Method: Untreated cotton sailcloth consisting of cellulose (500 g/m^2) was drenched with a solution of 800 ppm of prochloraz (A) and 800 ppm of tebuconazole (B) and a mixture (AB) comprising 200 ppm of prochloraz and 200 ppm of tebuconazole in ethanol. The samples were dried at 23° C. and 50% relative atmospheric humidity for 7 days and incorporated into biologically active soil according to DIN ENV 807. After 4 weeks, tear resistance of the cotton cloth was determined as a measure for the protection against destruction by microorganisms achieved by the active compounds.

Compound: CCCN(CCOc1c(Cl)cc(Cl)cc1Cl)C(=O)n1ccnc1 [A, N-propyl-N-[2-(2,4,6-trichlorophenoxy)ethyl]imidazole-1-carboxamide]
- MIC (Trichurus spiralis): 5 µg/mL
- activity against blueing fungi (blueing fungi): insufficiently active
- MIC (Coriolus versicolor): 6 µg/mL
- tear resistance of the cotton cloth [1]: easy to tear

Compound: CC(C)(C)C(O)(CCc1ccc(Cl)cc1)Cn1cncn1 (stereo not shown) [B, tebuconazole]
- MIC (Trichurus spiralis; nutrient agar, concentration where no growth could be observed, read-out: MIC): 200 µg/mL
- MIC (Coriolus versicolor; Coriolus versicolor, 26° C., malt extract peptone agar, lowest concentration at which radial growth is suppressed completely, read-out: MIC): 0.3 µg/mL
- tear resistance of the cotton cloth [1]: easy to tear
